Assay results reported in PubChem BioAssay AID330 (DTP/NCI, 2004).
“And” between values parts separate entries of the source, which are not always exact repeats. Equal values may be shown once. Toxic doses and inconclusive results are not listed.

Test system: P388 leukemia ip, CD2F1 mice, survival T/C
Test: NCI In Vivo Anticancer Drug Screen. Data for tumor model P388 Leukemia (intraperitoneal) in CD2F1 (CDF1) mice
Conditions: endpoint: median survival time, higher = longer survival
Outline: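 Mice carrying the transplanted tumor received test compound or vehicle. Survival was recorded in each group, and the value is the treated-group measurement divided by that of the vehicle-treated control group.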

[1] = dose: 60.0 mg/kg/injection, schedule: Q01DX005 (ip), vehicle: saline with Tween-80
[2] = dose: 120.0 mg/kg/injection, schedule: Q01DX005 (ip), vehicle: saline with Tween-80
[3] = dose: 240.0 mg/kg/injection, schedule: Q01DX005 (ip), vehicle: saline with Tween-80

## Nc1ncnc2c1ncn2C1OC(COP(=O)(O)O)C(O)C1O (configuration not stated)
dose: 12.5 mg/kg/injection, schedule: Q01DX009 (ip), vehicle: saline
  T/C: 99 % of control
dose: 18.8 mg/kg/injection, schedule: Q03HX016 (ip), vehicle: saline
  T/C: 123 % of control
dose: 18.8 mg/kg/injection, schedule: Q03HX024 (ip), vehicle: saline
  T/C: 113 % of control
dose: 20.0 mg/kg/injection, schedule: Q01DX009 (ip), vehicle: water
  T/C: 96 % of control
dose: 25.0 mg/kg/injection, schedule: Q01DX009 (ip), vehicle: saline
  T/C: 102 % of control
dose: 25.0 mg/kg/injection, schedule: Q01DX009 (ip), vehicle: suspension in saline
  T/C: 104 % of control
dose: 40.0 mg/kg/injection, schedule: Q01DX009 (ip), vehicle: water
  T/C: 103 % of control and 105 % of control
dose: 50.0 mg/kg/injection, schedule: Q01DX005 (ip), vehicle: water
  T/C: 101 % of control
dose: 50.0 mg/kg/injection, schedule: Q01DX005 (iv), vehicle: water
  T/C: 102 % of control
dose: 50.0 mg/kg/injection, schedule: Q01DX009 (ip), vehicle: saline
  T/C: 94 % of control and 98 % of control
dose: 50.0 mg/kg/injection, schedule: Q01DX009 (ip), vehicle: suspension in saline
  T/C: 100 % of control
dose: 50.0 mg/kg/injection, schedule: Q01DX009 (ip), vehicle: water
  T/C: 113 % of control
dose: 75.0 mg/kg/injection, schedule: Q03HX016 (ip), vehicle: saline
  T/C: 152 % of control
dose: 75.0 mg/kg/injection, schedule: Q03HX024 (ip), vehicle: saline
  T/C: 150 % of control
dose: 80.0 mg/kg/injection, schedule: Q01DX009 (ip), vehicle: water
  T/C: 108 % of control and 116 % of control
dose: 90.0 mg/kg/injection, schedule: Q03HX024 (ip), vehicle: water
  T/C: 122 % of control
dose: 100.0 mg/kg/injection, schedule: Q01DX005 (ip), vehicle: water
  T/C: 122 % of control
dose: 100.0 mg/kg/injection, schedule: Q01DX005 (iv), vehicle: water
  T/C: 104 % of control
dose: 100.0 mg/kg/injection, schedule: Q01DX009 (ip), vehicle: saline
  T/C: 101 % of control and 96 % of control
dose: 100.0 mg/kg/injection, schedule: Q01DX009 (ip), vehicle: suspension in saline
  T/C: 96 % of control
dose: 100.0 mg/kg/injection, schedule: Q01DX009 (oral), vehicle: water
  T/C: 99 % of control
dose: 100.0 mg/kg/injection, schedule: Q03HX016 (ip), vehicle: saline
  T/C: 156 % of control
dose: 100.0 mg/kg/injection, schedule: Q03HX016 (ip), vehicle: water
  T/C: 160 % of control
dose: 100.0 mg/kg/injection, schedule: Q03HX024 (ip), vehicle: saline
  T/C: 150 % of control
dose: 100.0 mg/kg/injection, schedule: Q03HX024 (ip), vehicle: water
  T/C: 151 % of control
dose: 100.0 mg/kg/injection, schedule: Q04DX003 (ip), vehicle: water
  T/C: 120 % of control
dose: 100.0 mg/kg/injection, schedule: Q08DX002 (ip), vehicle: water
  T/C: 112 % of control
dose: 150.0 mg/kg/injection, schedule: Q03HX016 (ip), vehicle: saline
  T/C: 167 % of control
dose: 150.0 mg/kg/injection, schedule: Q03HX024 (ip), vehicle: saline
  T/C: 171 % of control
dose: 160.0 mg/kg/injection, schedule: Q01DX009 (ip), vehicle: water
  T/C: 109 % of control
dose: 200.0 mg/kg/injection, schedule: Q01DX005 (iv), vehicle: water
  T/C: 102 % of control
dose: 200.0 mg/kg/injection, schedule: Q01DX009 (ip), vehicle: saline
  T/C: 92 % of control and 101 % of control
dose: 200.0 mg/kg/injection, schedule: Q01DX009 (ip), vehicle: suspension in saline
  T/C: 106 % of control
dose: 200.0 mg/kg/injection, schedule: Q01DX009 (oral), vehicle: water
  T/C: 104 % of control
dose: 200.0 mg/kg/injection, schedule: Q03HX016 (ip), vehicle: water
  T/C: 183 % of control
dose: 200.0 mg/kg/injection, schedule: Q03HX024 (ip), vehicle: water
  T/C: 186 % of control
dose: 200.0 mg/kg/injection, schedule: Q04DX003 (ip), vehicle: water
  T/C: 121 % of control
dose: 200.0 mg/kg/injection, schedule: Q08DX002 (ip), vehicle: water
  T/C: 113 % of control
dose: 400.0 mg/kg/injection, schedule: Q01DX005 (iv), vehicle: water
  T/C: 106 % of control
dose: 400.0 mg/kg/injection, schedule: Q01DX009 (ip), vehicle: saline
  T/C: 104 % of control
dose: 400.0 mg/kg/injection, schedule: Q01DX009 (ip), vehicle: water
  T/C: 153 % of control
dose: 400.0 mg/kg/injection, schedule: Q03HX009 (oral), vehicle: water
  T/C: 98 % of control
dose: 400.0 mg/kg/injection, schedule: Q03HX015 (oral), vehicle: water
  T/C: 103 % of control
dose: 400.0 mg/kg/injection, schedule: Q03HX016 (ip), vehicle: water
  T/C: 230 % of control
dose: 400.0 mg/kg/injection, schedule: Q03HX024 (ip), vehicle: water
  T/C: 210 % of control
dose: 400.0 mg/kg/injection, schedule: Q04DX003 (ip), vehicle: water
  T/C: 119 % of control
dose: 400.0 mg/kg/injection, schedule: Q08DX002 (ip), vehicle: water
  T/C: 118 % of control
dose: 800.0 mg/kg/injection, schedule: Q01DX005 (ip), vehicle: water
  T/C: 158 % of control
dose: 800.0 mg/kg/injection, schedule: Q01DX005 (iv), vehicle: water
  T/C: 111 % of control
dose: 800.0 mg/kg/injection, schedule: Q01DX009 (ip), vehicle: water
  T/C: 164 % of control
dose: 800.0 mg/kg/injection, schedule: Q01DX009 (oral), vehicle: water
  T/C: 90 % of control
dose: 800.0 mg/kg/injection, schedule: Q03HX009 (ip), vehicle: water
  T/C: 167 % of control
dose: 800.0 mg/kg/injection, schedule: Q03HX009 (oral), vehicle: water
  T/C: 105 % of control
dose: 800.0 mg/kg/injection, schedule: Q03HX015 (oral), vehicle: water
  T/C: 100 % of control
dose: 800.0 mg/kg/injection, schedule: Q03HX016 (ip), vehicle: water
  T/C: 260 % of control
dose: 800.0 mg/kg/injection, schedule: Q08DX002 (ip), vehicle: water
  T/C: 124 % of control
dose: 1600.0 mg/kg/injection, schedule: Q01DX009 (oral), vehicle: water
  T/C: 99 % of control
dose: 1600.0 mg/kg/injection, schedule: Q03HX009 (ip), vehicle: water
  T/C: 197 % of control
dose: 1600.0 mg/kg/injection, schedule: Q03HX009 (oral), vehicle: water
  T/C: 98 % of control
dose: 1600.0 mg/kg/injection, schedule: Q03HX015 (oral), vehicle: water
  T/C: 100 % of control
dose: 3200.0 mg/kg/injection, schedule: Q03HX009 (oral), vehicle: water
  T/C: 96 % of control
dose: 3200.0 mg/kg/injection, schedule: Q03HX015 (oral), vehicle: water
  T/C: 102 % of control

## CCOC(=O)c1c(Cl)c(Cc2ccccc2)c(Cl)n2c1nc1ccccc12
[1]
  T/C: 99 % of control
[2]
  T/C: 93 % of control
[3]
  T/C: 89 % of control

## O=c1nnc(O)c2n(O)cccc1-2
[1]
  T/C: 100 % of control
[2]
  T/C: 105 % of control
[3]
  T/C: 97 % of control

## CN(C)C(=O)CC(c1ccccc1)C(CO)c1ccccc1 (configuration not stated)
dose: 25.0 mg/kg/injection, schedule: Q01DX001 (ip), vehicle: Klucel (hydroxypropylcellulose) (HPC)
  T/C: 88 % of control
dose: 50.0 mg/kg/injection, schedule: Q01DX001 (ip), vehicle: Klucel (hydroxypropylcellulose) (HPC)
  T/C: 91 % of control
dose: 100.0 mg/kg/injection, schedule: Q01DX001 (ip), vehicle: Klucel (hydroxypropylcellulose) (HPC)
  T/C: 89 % of control
dose: 200.0 mg/kg/injection, schedule: Q01DX001 (ip), vehicle: Klucel (hydroxypropylcellulose) (HPC)
  T/C: 88 % of control

## CC12CC(c3ccccc3N1)C1CC2(C)Nc2ccccc21
dose: 50.0 mg/kg/injection, schedule: Q01DX005 (ip), vehicle: Klucel (hydroxypropylcellulose) (HPC)
  T/C: 95 % of control
dose: 100.0 mg/kg/injection, schedule: Q01DX005 (ip), vehicle: Klucel (hydroxypropylcellulose) (HPC)
  T/C: 100 % of control
dose: 200.0 mg/kg/injection, schedule: Q01DX005 (ip), vehicle: Klucel (hydroxypropylcellulose) (HPC)
  T/C: 102 % of control

## [Br][Hg][CH]1CCC2CCCC1O2 (configuration not stated)
dose: 12.5 mg/kg/injection, schedule: Q01DX009 (ip), vehicle: Klucel (hydroxypropylcellulose) (HPC)
  T/C: 89 % of control
dose: 25.0 mg/kg/injection, schedule: Q01DX009 (ip), vehicle: Klucel (hydroxypropylcellulose) (HPC)
  T/C: 90 % of control

## C=CCOC(CCC)OCC=C
dose: 50.0 mg/kg/injection, schedule: Q01DX009 (ip), vehicle: Klucel (hydroxypropylcellulose) (HPC)
  T/C: 97 % of control
dose: 100.0 mg/kg/injection, schedule: Q01DX009 (ip), vehicle: Klucel (hydroxypropylcellulose) (HPC)
  T/C: 97 % of control

## Nc1ccc2c(c1)C(=O)CCC2
dose: 50.0 mg/kg/injection, schedule: Q01DX009 (ip), vehicle: saline with Tween-80
  T/C: 103 % of control
dose: 100.0 mg/kg/injection, schedule: Q01DX009 (ip), vehicle: saline with Tween-80
  T/C: 99 % of control
dose: 200.0 mg/kg/injection, schedule: Q01DX009 (ip), vehicle: saline with Tween-80
  T/C: 100 % of control
